Data as given in patent US5091528A, “6- or 7- (2-imino-2-imidazolidine)-1,4-benzoxazines as α adrenergic agents” (Allergan, Inc., priority 1990, dated 1992).
Counter-ions that a name gives are not always drawn.

Assays:
alpha2 -Adrenoreceptor = conditions: described by Chapleo et al.; cited from earlier work
[1] = test system: alpha-2 adrenergic receptor; test: Rabbit Vas Deferens Assay (alpha-2 adrenergic receptor activity); design: species or system New Zealand white rabbit; conditions: for Comment (α1/α2 selectivity): Rabbit Vas Deferens table
Experimental: (§1) The test procedure for alpha-2 adrenergic receptor activity of the compounds of the present invention is the rabbit vas deferens assay which is described as follows:
(§2) New Zealand white rabbits (2-3 kg) were killed by CO2 inhalation and the vasa deferentia removed. The prostatic ends of the vasa deferentia (2-3 cm lengths) were mounted between platinum ring electrodes in 9 ml organ baths and bathed in Krebs bicarbonate solution of the following composition (millimolar): NaCl 118.0; KCl 4.7; CaCl2 2.5; MgSO4 1.2; KH2 PO4 1.2; glucose 11.0; NaHCO3 25.0; which solution was maintained at 35 degrees C and bubbled with 95% O2 and 5% CO2. The initial tension of the vas deferens was 0.5 g. The tissues were left to equilibrate for 30 minutes before stimulation was started. […] Cumulative concentration-response curves were obtained for the compounds being tested with a 4 minute contact time at each concentration. The reduction in response height was measured and expressed as a percentage of the height of the response before the addition of the compounds. Concentration response curves for each of the compounds were plotted. The effective concentration required for a 50% reduction in response height, expressed as EC50 were obtained from these curves.

[2] = target: T1, alpha-2 adrenergic receptor (Oryctolagus cuniculus, UniProt Q5ZQK3); test: as above; design: species or system New Zealand white rabbit; conditions: field-stimulated rabbit vas deferens, 35 degrees C, 4 minute contact time; read-out: EC50 (effective concentration required for a 50% reduction in response height)
T1 construct: The prostatic ends of the vasa deferentia (2-3 cm lengths) were mounted between platinum ring electrodes; from tissue; host or cells: prostatic ends of vasa deferentia of New Zealand white rabbits
T1 sequence (Q5ZQK3 1-451): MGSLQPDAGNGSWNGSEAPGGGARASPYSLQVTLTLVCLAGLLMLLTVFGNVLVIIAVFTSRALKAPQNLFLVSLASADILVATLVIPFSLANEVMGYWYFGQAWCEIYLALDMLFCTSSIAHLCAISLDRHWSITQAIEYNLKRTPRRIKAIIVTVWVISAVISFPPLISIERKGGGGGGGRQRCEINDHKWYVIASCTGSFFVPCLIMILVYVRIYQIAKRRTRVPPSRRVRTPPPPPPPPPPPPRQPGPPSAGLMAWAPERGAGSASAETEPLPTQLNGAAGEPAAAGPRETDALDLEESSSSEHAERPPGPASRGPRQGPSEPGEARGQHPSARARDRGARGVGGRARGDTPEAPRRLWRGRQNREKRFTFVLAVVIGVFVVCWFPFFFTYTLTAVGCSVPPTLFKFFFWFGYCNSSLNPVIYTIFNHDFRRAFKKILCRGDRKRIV
Experimental: as §1, §2

[3] = test system: Alpha 1 adrenergic receptor; test: Rabbit Aorta: Alpha 1 adrenergic receptor assay; conditions: rabbit thoracic aorta rings, 37° C
Description: The vasoconstrictive properties of the compounds of the present invention, i.e. their ability to reduce or control intraocular bleeding, are established by the rabbit aorta: alpha 1 adrenergic receptors in vivo assay procedure, which is recognized in the art to be indicative of the in vivo activity of the tested compounds as vaso-constrictors or as anti intraocular bleeding agents.
Thoracic aorta specimens were obtained form albino rabbits that were killed by CO2 inhalation. The aorta was cut into 3 mm rings. Tissues were placed in Krebs-Hensleit solution of the following composition (millimolar): NaCl 119; KCl 4.7; MgSO4 1.5, KH2 PO4 1.2; CaCl2 2.5; NaHCO3 25 and glucose 11.0. The solution also contained cocaine (0.1 millimolar) to block neuronal uptake and EDTA (30 micromolar) and ascorbic acid (5 micromolar) to prevent oxidation of the compound being tested. Tissues were hung in 10 ml organ baths and tension was measured via Grass FT03 force-displacement transducers. Resting tension was 2 g for the aorta. The solution was gassed with 95% O2 and 5% CO2 and maintained at 37° C. Tissues were allowed to equilibrate for 2 hours before stimulation and the cumulative addition of the compound to be tested (aryl oxazoline) was started. Tissue stimulation was performed using a square wave stimulator (WPI A310) Accupulser with A385 stimulus) at 0.1 Hz, 2 ms pulse width at 90 mA.

intraocular pressure = intraocular pressure (anti-glaucoma) assay, topical unilateral administration; format: in vivo, monkey or New Zealand white rabbit
Experimental: The anti-glaucoma activity (ability to maintain or reduce intraocular pressure) of the compounds of the present invention is established by the following assay pressure. This assay procedure is generally recognized in the art to provide pertinent information with respect to the anti-glaucomaactivity of the formulations assayed. Thus, each of the compounds of the invention to be tested was dissolved in distilled water at a concentration of 0.3% (W/V). Each of these solutions was administered topically and unilaterally to one eye of a drugnaive, unanesthetized monkey or New Zealand white rabbit in a single 50 micro liter drop. The contralateral eye received an equal volume of saline prior to determining the intraocular pressure after the mixture was administered. Also, approximately 10 micro liters of 0.5% (W/V) proparacaine (topical anesthetic) was applied to the corneas of each of the animals before determining intraocular pressure. As a control test, six (6) other drug-naive, unanesthetized animals were treated and tested as described above except that no compound of the invention was included in the solutions administered to the eyes.
The intraocular pressure was determined in both eyes of each animal both before and after the solutions were administered. Such intraocular pressure determinations were made in the conventional manner using conventional equipment.

[4] = storage stability of solid; format: physicochemical; conditions: stored in the dark at 0° C
[5] = Contralateral (Untreated) Eye, 0.3% (W/V) to the other eye
[6] = Ipsilateral (Treated) Eye, 0.3% (W/V), single 50 micro liter drop

SMILES | Comment (α1/α2 selectivity) [1] | EC50 [2] | EC50 [3] | other results
O=C1COc2cc(N=C3NCCN3)ccc2N1 [Example 3, 7-2(2-imino-2-imidazolidine)-3-oxo-3,4-dihydro-(2H)-1,4-benzoxazine] | – | – | – | alpha-2 agonist activity (alpha2 -Adrenoreceptor): partial alpha-2 agonists
O=C1COc2cc(N=C3NCCN3)c(Br)cc2N1 [Example 4, 6-Bromo-7-(2-imino-2-imidazolidine)-3-oxo-3,4-dihydro-(2H)-1,4-benzoxazine,hydrobromide] | α2 Selective | 167 ± 56.1 nM | 1120 ± 457 nM | –
Brc1cc2c(cc1N=C1NCCN1)OCCN2 [Example 7, 6-bromo-7-(2-imino-2-imidazolidine)-3,4-dihydro-(2H)-1,4-benzoxazine] | α1 Selective | > 10000 nM | 39 ± 6.36 nM | –
O=C1COc2ccc(N=C3NCCN3)cc2N1 [Example 12, 6-(2-imino-2-imidazlidine)-3-oxo-3,4-dihydro-(2H)-1,4-benzoxazine] | – | – | – | alpha-2 agonist activity (alpha2 -Adrenoreceptor): partial alpha-2 agonists
CN1C(=O)COc2cc(N=C3NCCN3)c(Br)cc21 [Example 22, 4-methyl-6-bromo-7-(2-imino-imidazolidine)-3-oxo-3,4-dihydro-2H-1,4-benzoxazinehydrobromide] | α2 Selective | 105 ± 35.5 nM | 1430 ± 891 nM | Duration of IOP decrease (intraocular pressure; [5]): 1 h; Maximum Difference in Intraocular Pressure After Solution Administration, % Decrease in IOP from Control (intraocular pressure; [5]): 5.7 ± 2.0%; Duration of IOP decrease (intraocular pressure; [6]): 1 to 2 h; Maximum Difference in Intraocular Pressure After Solution Administration, % Decrease in IOP from Control (intraocular pressure; [6]): 11.5 ± 2.7%
O=S(=O)(O)C1=NCCN1 [Imidazoline-2-sulfonic acid] | – | – | – | stability of solid on storage [4]: at least 6 months

The next lines start with results.

Comment (α1/α2 selectivity) [1] | EC50 [2] | EC50 [3] | SMILES | other results
Non-Selective | 0.59 ± 0.14 nM | 3.41 ± 0.5 nM | O=C1COc2c(cc(Br)c(N=C3NCCN3)c2Br)N1 [Example 5, 6,8-dibromo-7-(2-imino-2-imidazolidine)-3-oxo-3,4-dihydro-(2H)-1,4-benzoxazine] | Comment (vasoconstrictor activity) ([1]; printed "Potent- Vasoconstrictor" on two lines): Vasoconstrictor
α2 Selective | 48.5 ± 20.6 nM | > 100000 nM | O=C1COc2cc(Br)c(N=C3NCCN3)c(Br)c2N1 [Example 14, 5,7-dibromo-6-(2-imino-2-imidazolidine)-3-oxo-3,4-dihydro-2H-1,4-benzoxazin] | –
α2 Selective | 41.5 ± 24.4 nM | 2740 ± 1430 nM | CN1C(=O)COc2cc(Br)c(N=C3NCCN3)cc21 [Example 31, 7-bromo-4-methyl-6-(2-imino-imidazolidine)-3-oxo-3,4-dihydro-(2H)-1,4-benzoxazine] | Duration of IOP decrease (intraocular pressure; [5]): 1 h; Maximum Difference in Intraocular Pressure After Solution Administration, % Decrease in IOP from Control (intraocular pressure; [5]): 6.8 ± 1.8%; Duration of IOP decrease (intraocular pressure; [6]): 1 to 6 h; Maximum Difference in Intraocular Pressure After Solution Administration, % Decrease in IOP from Control (intraocular pressure; [6]): 14 ± 2.5%
α2 Selective | 74.6 ± 43.6 nM | 5690 ± 956 nM | Cc1cc2c(cc1N=C1NCCN1)NC(=O)CO2 [Example 39, 7-methyl-6(2-imino-2-imidazolidine)-3-oxo-3,4-dihydro-(2H)-1,4-benzoxazine] | –
α2 Selective | 8.92 ± 3.11 nM | 940 ± 18.5 nM | CCc1cc2c(cc1N=C1NCCN1)NC(=O)CO2 [Example 50, 7-Ethyl-6-(2-imino-2-imidazolidine)-3-oxo-3,4-dihydro-(2H)-1,4-benzoxazine] | –
α2 Selective | 18.1 ± 1.21 nM | 1120 ± 94.1 nM | CCCc1c(N=C2NCCN2)ccc2c1NC(=O)CO2 [Example 56, 5-Propyl-6-(2-imino-2-imidazolidine)-3-oxo-3,4-dihydro-(2H)-1,4-benzoxazine] | –
